Laboratory results from US20180273531A1, “PYRIMIDINE COMPOUND AND MEDICAL USE THEREOF” (Japan Tobacco Inc., priority 2004, published 2018).

Assays:
Format in all cases: cell-based
[1] = test system: colorectal cancer cell line HT-29 cells; assay: Growth inhibitory effect against cancer cell lines (3H-thymidine uptake), HT-29; conditions: Homo sapiens, HT-29, inhibition of 3H-thymidine uptake; test substance 18 hrs, then 3H-thymidine 6 hrs; triplicate
Method in brief: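 Cells seeded at 1.0×10^4/well, grown 24 hrs, then exposed to compound in DMSO for 18 hrs before 6 hrs pulse with ^3H-thymidine (0.25 μCi/well). Harvested cell-incorporated radioactivity counted; IC50 is the concentration halving uptake versus DMSO control, triplicate.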

p27 protein = p27 protein induction test (Western blotting); conditions: test substance (0.1 1M), 24 hrs, ACHN cells or HT-29 cells, compared to DMSO, n=2
Experimental: ACHN cells or HT-29 cells were cultured in a 6 well plate at 2.5×10^5 cells/1.8 mL/well for 24 hrs, a test substance ([…]) dissolved in DMSO was added. After 24 hrs, cells were detached using trypsin-EDTA (ethylene diamine tetraacetic acid) and solubilized with NuPAGE LDS sample buffer (Invitrogen). Using an RC DC protein assay kit (BIO-RAD), the protein concentration of the sample was quantitated, and a sample in an amount corresponding to 10 μg of BSA (bovine serum albumin) was analyzed by Western blotting using an anti-p27 antibody. The density of the band stained with the anti-p27 antibody was measured by a densitometer to quantify the amount of p27 protein. As a control, DMSO was used and the test was performed with n=2 and the average protein amount was determined.

[2] = test system: Renal cancer cell line ACHN cell; assay: Growth inhibitory effect against cancer cell lines (3H-thymidine uptake), ACHN; conditions: Homo sapiens, ACHN
Experimental: Renal cancer cell line ACHN cell or colorectal cancer cell line HT-29 cells were cultured in a 96 well plate at 1.0×10^4 cells/90 μL/well for 24 hrs, then a test substance dissolved in DMSO (dimethyl sulfoxide) was added. After 18 hrs, ^3H-thymidine (0.25 μCi/well) was added and the cells were cultured for 6 hrs. Using a cell harvester, the cells were recovered on a UniFilter-96 GF/B glass filter and the ^3H radioactivity uptaken by the cells was measured by TopCount (Packard). As a control, DMSO was used and the activity of the test substance was expressed in the concentration (IC50) necessary for inhibiting ^3H radioactivity uptaken by the cell to 50% of that of the control group. The measurements were made in triplicate.

p15 protein = assay: Evaluation of p15 induction activity (Western blotting); conditions: test substance 0.1 μM, 24 hrs, ACHN cells or HT-29 cells, compared to DMSO, n=2
Method in brief: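 p15 protein quantified by densitometry of anti-p15 Western blots (10 μg protein per lane, mean of n=2). Samples came from HT-29 or ACHN cells given 0.1 μM compound for 24 h after 24 h plating, with DMSO as control.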

| SMILES | IC50 [1] | fold induction at 0.1 µM (p27 protein) | IC50 [2] | fold induction at 0.1 µM (p15 protein) |
| --- | --- | --- | --- | --- |
| Cn1c(=O)cc(Nc2ccc(Br)cc2F)c2c(=O)n(C3CC3)c(=O)n(-c3cccc(NS(C)(=O)=O)c3)c21 [Example 1-1, N-{3-[5-(4-bromo-2-fluoro-phenylamino)-3-cyclopropyl-8-methyl-2,4,7-trioxo-3,4,7,8-tetrahydro-2H-pyrido[2,3-d]pyrimidin-1-yl]phenyl}-methanesulfonamide] | < 0.01 µM | ≥ 1.5 | 0.01 to 0.1 µM | ≥ 1.5 |
| Cc1cc(N(C)C)ccc1Nc1cc(=O)n(C)c2c1c(=O)n(C1CC1)c(=O)n2-c1ccccc1 [Example 1-112] | 0.01 to 0.1 µM | ≥ 1.5 | 0.1 to 1 µM | ≥ 1.5 |
| CN(C)c1ccc(Nc2cc(=O)n(C)c3c2c(=O)n(C2CC2)c(=O)n3-c2ccccc2F)cc1 [Example 1-114] | 0.1 to 1 µM | ≥ 1.5 | 0.1 to 1 µM | ≥ 1.5 |
| Cn1c(=O)cc(Nc2ccc(Br)cc2F)c2c(=O)n(C3CC3)c(=O)n(-c3ccccc3)c21 [Example 1-152] | 0.01 to 0.1 µM | ≥ 1.5 | 0.1 to 1 µM | ≥ 1.5 |
| Cn1c(=O)c2c(Nc3ccc(Br)cc3F)cc(=O)n(C)c2n(-c2ccccc2)c1=O [Example 1-185] | 0.01 to 0.1 µM | ≥ 1.5 | 0.1 to 1 µM | ≥ 1.5 |
| Cn1c(=O)cc(Nc2ccc(Br)cc2F)c2c(=O)n(C3CC3)c(=O)n(-c3cccc(N4CCOCC4=O)c3)c21 [Example 1-219] | 0.01 to 0.1 µM | ≥ 1.5 | 0.1 to 1 µM | ≥ 1.5 |
| Cn1c(=O)cc(Nc2ccc(I)cc2)c2c(=O)n(C3CC3)c(=O)n(-c3ccccc3)c21 [Example 1-221] | < 0.01 µM | ≥ 1.5 | 0.01 to 0.1 µM | ≥ 1.5 |
| C#Cc1ccc(Nc2cc(=O)n(C)c3c2c(=O)n(C2CC2)c(=O)n3-c2ccccc2)cc1 [Example 1-222] | 0.01 to 0.1 µM | ≥ 1.5 | 0.1 to 1 µM | ≥ 1.5 |
| CN(C)S(=O)(=O)c1cccc(-n2c(=O)n(C3CC3)c(=O)c3c(Nc4ccc(Br)cc4F)cc(=O)n(C)c32)c1 [Example 1-224] | < 0.01 µM | ≥ 1.5 | 0.1 to 1 µM | ≥ 1.5 |
| CN(C)S(=O)(=O)c1ccc(-n2c(=O)n(C3CC3)c(=O)c3c(Nc4ccc(Br)cc4F)cc(=O)n(C)c32)cc1 [Example 1-226] | 0.01 to 0.1 µM | ≥ 1.5 | 0.1 to 1 µM | ≥ 1.5 |
| C=Cc1ccc(Nc2cc(=O)n(C)c3c2c(=O)n(C2CC2)c(=O)n3-c2ccccc2)c(F)c1 [Example 1-240] | 0.01 to 0.1 µM | ≥ 1.5 | 0.01 to 0.1 µM | ≥ 1.5 |
| CCc1ccc(Nc2cc(=O)n(C)c3c2c(=O)n(C2CC2)c(=O)n3-c2ccccc2)c(F)c1 [Example 1-242] | 0.01 to 0.1 µM | ≥ 1.5 | 0.1 to 1 µM | ≥ 1.5 |
| Cn1c(=O)cc(Nc2ccc(Br)cc2F)c2c(=O)n(C3CC3)c(=O)n(-c3cccc(CCCO)c3)c21 [Example 1-243] | 0.01 to 0.1 µM | ≥ 1.5 | 0.1 to 1 µM | ≥ 1.5 |
| CC(=O)Nc1cccc(-n2c(=O)n(C3CC3)c(=O)c3c(Nc4ccc(Br)cc4F)cc(=O)n(C)c32)c1 [Example 1-245] | < 0.01 µM | ≥ 1.5 | 0.01 to 0.1 µM | ≥ 1.5 |
| Cn1c(=O)cc(Nc2ccc(Br)cc2F)c2c(=O)n(C3CC3)c(=O)n(-c3cccc(N)c3)c21 [Example 1-264] | 0.01 to 0.1 µM | ≥ 1.5 | 0.1 to 1 µM | ≥ 1.5 |
| Cn1c(=O)cc(Nc2ccc(C3CC3)cc2F)c2c(=O)n(C3CC3)c(=O)n(-c3ccccc3)c21 [Example 1-265] | 0.01 to 0.1 µM | ≥ 1.5 | 0.1 to 1 µM | ≥ 1.5 |
| COCC(=O)Nc1cccc(-n2c(=O)n(C3CC3)c(=O)c3c(Nc4ccc(Br)cc4F)cc(=O)n(C)c32)c1 [Example 1-266] | < 0.01 µM | ≥ 1.5 | 0.1 to 1 µM | ≥ 1.5 |

| SMILES | IC50 [1] | fold induction at 0.1 µM (p27 protein) | IC50 [2] | fold induction at 0.1 µM (p15 protein) |
| --- | --- | --- | --- | --- |
| CCc1ccc(Nc2cc(=O)n(C)c3c2c(=O)n(C2CC2)c(=O)n3-c2cccc(NS(=O)(=O)CC)c2)c(F)c1 [Example 1-268] | 0.01 to 0.1 µM | ≥ 1.5 | 0.01 to 0.1 µM | ≥ 1.5 |
| CCCS(=O)(=O)Nc1cccc(-n2c(=O)n(C3CC3)c(=O)c3c(Nc4ccc(Br)cc4F)cc(=O)n(C)c32)c1 [Example 1-271] | < 0.01 µM | ≥ 1.5 | 0.01 to 0.1 µM | ≥ 1.5 |
| CC(C)S(=O)(=O)Nc1cccc(-n2c(=O)n(C3CC3)c(=O)c3c(Nc4ccc(Br)cc4F)cc(=O)n(C)c32)c1 [Example 1-272] | 0.01 to 0.1 µM | ≥ 1.5 | 0.01 to 0.1 µM | ≥ 1.5 |
| Cn1c(=O)cc(Nc2ccc(Br)cc2F)c2c(=O)n(C3CC3)c(=O)n(-c3cccc(NS(=O)(=O)CCl)c3)c21 [Example 1-282] | 0.01 to 0.1 µM | ≥ 1.5 | 0.1 to 1 µM | ≥ 1.5 |
| CNc1cccc(-n2c(=O)n(C3CC3)c(=O)c3c(Nc4ccc(Br)cc4F)cc(=O)n(C)c32)c1 [Example 1-283] | 0.01 to 0.1 µM | ≥ 1.5 | 0.1 to 1 µM | ≥ 1.5 |
| Cn1c(=O)cc(Nc2ccc(Br)cc2F)c2c(=O)n(C3CC3)c(=O)n(-c3cccc(NS(=O)(=O)c4ccccc4)c3)c21 [Example 1-284] | 0.01 to 0.1 µM | ≥ 1.5 | 0.1 to 1 µM | ≥ 1.5 |
| CSc1ccc(Nc2cc(=O)n(C)c3c2c(=O)n(C2CC2)c(=O)n3-c2ccccc2)c(F)c1 [Example 1-285] | 0.01 to 0.1 µM | ≥ 1.5 | 0.01 to 0.1 µM | ≥ 1.5 |
| CSc1ccc(Nc2cc(=O)n(C)c3c2c(=O)n(C2CC2)c(=O)n3-c2cccc(NS(C)(=O)=O)c2)c(F)c1 [Example 1-286] | < 0.01 µM | ≥ 1.5 | 0.01 to 0.1 µM | ≥ 1.5 |
| CC(C)C(=O)Nc1cccc(-n2c(=O)n(C3CC3)c(=O)c3c(Nc4ccc(Br)cc4F)cc(=O)n(C)c32)c1 [Example 1-287] | 0.01 to 0.1 µM | ≥ 1.5 | 0.1 to 1 µM | ≥ 1.5 |
| C#Cc1ccc(Nc2cc(=O)n(C)c3c2c(=O)n(C2CC2)c(=O)n3-c2cccc(NS(=O)(=O)CC)c2)c(F)c1 [Example 1-289] | < 0.01 µM | ≥ 1.5 | < 0.01 µM | ≥ 1.5 |
| C#Cc1ccc(Nc2cc(=O)n(C)c3c2c(=O)n(C2CC2)c(=O)n3-c2cccc(NS(C)(=O)=O)c2)cc1 [Example 1-290] | < 0.01 µM | ≥ 1.5 | 0.01 to 0.1 µM | ≥ 1.5 |
| Cn1c(=O)cc(Nc2ccc(CCF)cc2)c2c(=O)n(C3CC3)c(=O)n(-c3ccccc3)c21 [Example 1-293] | 0.1 to 1 µM | ≥ 1.5 | 0.1 to 1 µM | ≥ 1.5 |
| CCNS(=O)(=O)c1cccc(-n2c(=O)n(C3CC3)c(=O)c3c(Nc4ccc(Br)cc4F)cc(=O)n(C)c32)c1 [Example 1-295] | 0.01 to 0.1 µM | ≥ 1.5 | 0.1 to 1 µM | ≥ 1.5 |
| CCc1ccc(Nc2cc(=O)n(C)c3c2c(=O)n(C2CC2)c(=O)n3-c2cccc(NC(C)=O)c2)c(F)c1 [Example 1-296] | < 0.01 µM | ≥ 1.5 | 0.1 to 1 µM | ≥ 1.5 |
| CC(=O)Nc1cccc(-n2c(=O)n(C3CC3)c(=O)c3c(Nc4ccc(I)cc4F)cc(=O)n(C)c32)c1 [Example 1-297] | < 0.01 µM | ≥ 1.5 | 0.01 to 0.1 µM | ≥ 1.5 |
| CCS(=O)(=O)Nc1cccc(-n2c(=O)n(C3CC3)c(=O)c3c(Nc4ccc(Br)cc4F)n(C)c(=O)c(C)c32)c1 [Example 3-5] | < 0.01 µM | ≥ 1.5 | 0.01 to 0.1 µM |  |
| CC(=O)Nc1cc(-n2c(=O)n(C3CC3)c(=O)c3c(Nc4ccc(I)cc4F)n(C)c(=O)c(C)c32)ccc1F [Example 4-99] | < 0.01 µM | ≥ 1.5 | 0.1 to 1 µM |  |
